For the assay, the system named is intracellular Trypanosoma cruzi in host cells, plate reader. Nature of the assay: intracellular Trypanosoma cruzi inhibitors in host cells – cell-based, plate reader, cherry-pick samples, set 3, dose response (AID 651818).

The values that follow come from PubChem BioAssay AID651818 (Broad Institute, 2012).

Results filed as inconclusive are left out.

As for `C[C@@H]1CN([C@@H](C)CO)C(=O)c2cccc(NC(=O)c3ccncc3)c2O[C@H]1CN(C)Cc1ccc(Oc2ccccc2)cc1`, the AC50 is less than 75 nM.
